# Assay results published in patent US9790174B2, “Kinase inhibitors” (Respivert Limited, priority 2013, dated 2017).
# What was measured:
# d-U937 cells = experiment: Accumulation of β catenin in d-U937 cells; type: cell-based, human; settings: relative to Reference Compound at 1 μg/mL
# Method: U937 cells, a human monocytic cell line, are differentiated into macrophage-type cells by incubation with PMA (100 ng/mL) for between 48 to 72 hr. The cells are then incubated with either final concentrations of test compound or vehicle for 18 hr. The induction of β-catenin by the test compounds is stopped by replacing the media with 4% formaldehyde solution. Endogenous peroxide activity is neutralised by incubating with quenching buffer (100 μL, 0.1% sodium azide, 1% H2O2 in PBS with 0.05% Tween-20) for 20 min. The cells are washed with washing buffer (200 pt; PBS containing 0.05% Tween-20) and incubated with blocking solution (200 pt; 5% milk in PBS) for 1 hr, re-washed with washing buffer (200 pt) and then incubated overnight with anti-β-catenin antibody solution (50 μL) in 1% BSA/PBS (BD, Oxford, UK).
# After washing with washing buffer (3×200 pt; PBS containing 0.05% Tween-20), cells are incubated with a HRP-conjugated secondary antibody solution (100 μL) in 1% BSA/PBS (Dako, Cambridge, UK) and the resultant signal is determined colourimetrically (OD: 450 nm with a reference wavelength of 655 nm) using TMB substrate (50 μL; R&D Systems, Abingdon, UK). This reaction is stopped by addition of 1N H2SO4 solution (50 μL). Cells are then washed with washing buffer and 2% crystal violet solution (50 μL) is applied for 30 min. After washing with washing buffer (3×200 μL), 1% SDS (100 μL) is added to each well and the plates are shaken lightly for 1 hr prior to measuring the absorbance at 595 nm (Varioskan® Flash, Thermo-Fisher Scientific).
# The measured OD450-655 readings are corrected for cell number by dividing the OD450-655 by the OD595 readings.
# non-mutant kinases = experiment: KinomeScan selectivity scores; type: binding; settings: evidenced by lower selectivity scores
# Method: These assays may be conducted by DiscoverX (formerly Ambit; San Diego, Calif.). The percentage inhibition produced by incubation with a test compound may be calculated relative to the non-inhibited control.
# [1] = tested on: intestinal mucosa biopsies from ulcerative colitis patients; experiment: Human biopsy assay (cytokine release from intestinal mucosa biopsies); type: cell-based; settings: 1 μg/mL, 24 hours
# Method: Intestinal mucosa biopsies are obtained from the inflamed regions of the colons of IBD patients. The biopsy material is cut into small pieces (2-3 mm) and placed on steel grids in an organ culture chamber at 37° C. in a 5% CO2/95% O2 atmosphere in serum-free media. DMSO control or test compounds at the desired concentration are added to the tissue and incubated for 24 hr in the organ culture chamber. The supernatant is harvested for determination of IL-6, IL-8, IL-1β and TNFα levels by R&D ELISA.
# [2] = tested on: adoptive transfer colitis; experiment: Adoptive transfer in mice; type: in vivo, SCID mice; settings: for levels of pro-inflammatory cytokines in samples of colon tissue: adoptive transfer model
# Method: On Study day 0, female Balb/C mice are terminated and spleens obtained for CD45RB^high cell isolation (Using SCID IBD cell Separation protocol). Approximately 4×10^5 cells/mL CD45RB^high cells are then injected intraperitoneally (100 μL/mouse) into female SCID animals. On study day 14, mice are weighed and randomized into treatment groups based on body weight. On Day 14, compounds are administered BID, via oral gavage, in a peanut oil vehicle at the dose levels outlined below in Tables 6a and 6b and a dose volume of 5 mL/kg. Treatment continues until study day 42, at which point the animals are necropsied 4 hours after the morning administration. The colon length and weight are recorded and used as a secondary endpoint in the study as a measurement of colon oedema. The colon is then divided into six cross-sections, four of which are used for histopathology scoring (primary endpoint) and two are homogenised for cytokine analysis. Data shown is the % inhibition of the induction window between nave animals and vehicle animals, where higher inhibition implies closer to the non-diseased, nave, phenotype.
# [3] = tested on: Salmonella typhimurium, strains TA98 and TA100; experiment: Mutagenicity assessment (bacterial reverse mutation screen); type: cell-based; settings: TA98 and TA100, presence or absence of S-9 mix
# Method: Studies were conducted by Sequani (Ledbury, Herefordshire, UK) to assess compounds of the invention for their ability to induce mutations in two histidine dependent auxotrophic mutants of Salmonella typhimurium, strains TA98 and TA100 in vitro.
# The mutation screen was conducted using the plate incorporation method and was performed in both the presence and absence of S-9 mix (a liver post-mitochondrial fraction derived from the livers of Aroclor 1254 treated rats). The bacteria were exposed to test compounds dissolved in dimethylsulphoxide, which solvent was also used as the negative control. The dose levels used were 0.32, 1.6, 8, 40, 200, 1000 or 5000 μg/plate.
# [4] = tested on: rat, Cynomolgus macaque or human hepatocytes; experiment: Analysis of metabolites in hepatocytes; type: in vitro ADME; settings: 10 μM, 0, 60 and 90 minutes
# Method: Studies were conducted by BioFocus (Saffron Walden, UK) to determine the metabolic fate of the compound of Example 16 following incubation with rat, Cynomolgus macaque or human hepatocytes.
# Separate incubations (n=3) of the compound of Example 16 (10 μM initial concentration) or DMSO control, were performed with cryopreserved hepatocytes from each species (0.5 million cell/mL) at 37° C. for 0, 60 and 90 minutes before termination of reactions and compound extraction with acetonitrile. Sample replicates were pooled prior to analysis.
# Potential metabolites were identified using time-of-flight (TOF) and triple quadruple (TQ) mass spectrometers.
# TNBS-induced colitis = TNBS-induced colitis in mice; type: in vivo, BDF1 mice; settings: conducted over 2 days; oral
# Method: Non-fasted, 10-12 week old, male BDF1 mice are dosed by oral gavage twice daily with either vehicle (5 mL/kg), reference item (Budesonide 2.5 mg/kg) or test compound (1 or 5 mg/kg) one day before (Day −1) stimulation of the inflammatory response by treatment with 2,4,6-trinitrobenzenesulphonic acid (TNBS) (15 mg/mL in 50% ethanol/50% saline). On Day 0 of the study TNBS (200 μL) is administered intra-colonically via a plastic catheter with BID dosing of the vehicle, reference or test compound continuing for 2 or 4 days. During the study, animals are weighed every day and stool observations are made and recorded as a score, based on stool consistency. At the time of sacrifice on Day 2 (or Day 4), the large intestine is removed and the length and weight recorded. Sections of the colon are taken for histopathology scoring to determine disease severity.
# B-Raf = B-Raf (Homo sapiens (Human), UniProt P15056); experiment: KINOMEscan binding of kinase to standard ligand
# B-Raf, sequence (P15056 whole entry): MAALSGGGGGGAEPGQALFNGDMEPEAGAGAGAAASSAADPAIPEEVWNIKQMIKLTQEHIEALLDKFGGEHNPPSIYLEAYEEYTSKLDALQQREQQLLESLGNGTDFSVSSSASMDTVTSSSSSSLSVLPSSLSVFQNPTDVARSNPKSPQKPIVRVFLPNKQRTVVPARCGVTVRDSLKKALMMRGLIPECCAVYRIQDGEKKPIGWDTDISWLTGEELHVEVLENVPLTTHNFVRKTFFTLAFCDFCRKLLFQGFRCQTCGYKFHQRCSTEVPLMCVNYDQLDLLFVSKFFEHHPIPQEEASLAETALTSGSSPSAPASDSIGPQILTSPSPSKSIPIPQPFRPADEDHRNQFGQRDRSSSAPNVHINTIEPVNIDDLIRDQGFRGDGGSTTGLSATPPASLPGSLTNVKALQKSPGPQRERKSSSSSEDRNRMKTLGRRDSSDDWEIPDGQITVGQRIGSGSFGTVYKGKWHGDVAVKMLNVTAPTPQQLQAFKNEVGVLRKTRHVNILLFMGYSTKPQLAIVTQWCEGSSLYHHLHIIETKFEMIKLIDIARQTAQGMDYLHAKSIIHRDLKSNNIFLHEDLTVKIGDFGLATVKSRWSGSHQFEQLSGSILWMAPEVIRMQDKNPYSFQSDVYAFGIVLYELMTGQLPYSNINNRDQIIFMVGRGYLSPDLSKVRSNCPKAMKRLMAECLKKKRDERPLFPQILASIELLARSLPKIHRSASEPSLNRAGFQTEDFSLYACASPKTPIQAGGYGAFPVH
# Method: (§1) Kinase enzyme binding activities of compounds disclosed herein may be determined using a proprietary assay which measures active site-directed competition binding to an immobilized ligand (Fabian, M. A. et al., Nature Biotechnol., 2005, 23:329-336). These assays may be conducted by DiscoverX (formerly Ambit; San Diego, Calif.). The percentage inhibition produced by incubation with a test compound may be calculated relative to the non-inhibited control.
# B-Raf (V600E) = B-Raf (V600E) (Homo sapiens (Human), UniProt P15056, V600E); experiment: KINOMEscan binding of kinase to standard ligand
# B-Raf (V600E), sequence (P15056 whole entry V600E): as the sequence (P15056 whole entry) above, with V600E counted along it
# Method: as §1
# [5] = tested on: endotoxin-induced uveitis; experiment: Endotoxin-induced uveitis in rats; type: in vivo, Lewis rats; settings: rats treated with intravitreal endotoxin LPS
# Method: Male, Lewis rats (6-8 weeks old, Charles River UK Limited) are housed in cages of 3 at 19-21° C. with a 12 h light/dark cycle (07:00/19:00) and fed a standard diet of rodent chow and water ad libitum. Non-fasted rats are weighed, individually identified on the tail with a permanent marker, and receive a single intravitreal administration into the right vitreous humor (5 μL dose volume) of 100 ng/animal of LPS (Escherichia coli 0111:B4 prepared in PBS, Sigma Aldrich, UK) using a 32-gauge needle. Untreated rats are injected with PBS. […] Following euthanasia, the right eye of each animal is enucleated and dissected into front (anterior) and back (posterior) sections around the lens. Each section is weighed and homogenised in 500 μL of sterile phosphate buffered saline followed by 20 minutes centrifugation at 12000 rpm at 4° C.
# CYP2C9 = CYP2C9 (Homo sapiens (Human), UniProt P11712); experiment: CYP2C9 inhibition studies; type: in vitro ADME
# CYP2C9, sequence (P11712 whole entry): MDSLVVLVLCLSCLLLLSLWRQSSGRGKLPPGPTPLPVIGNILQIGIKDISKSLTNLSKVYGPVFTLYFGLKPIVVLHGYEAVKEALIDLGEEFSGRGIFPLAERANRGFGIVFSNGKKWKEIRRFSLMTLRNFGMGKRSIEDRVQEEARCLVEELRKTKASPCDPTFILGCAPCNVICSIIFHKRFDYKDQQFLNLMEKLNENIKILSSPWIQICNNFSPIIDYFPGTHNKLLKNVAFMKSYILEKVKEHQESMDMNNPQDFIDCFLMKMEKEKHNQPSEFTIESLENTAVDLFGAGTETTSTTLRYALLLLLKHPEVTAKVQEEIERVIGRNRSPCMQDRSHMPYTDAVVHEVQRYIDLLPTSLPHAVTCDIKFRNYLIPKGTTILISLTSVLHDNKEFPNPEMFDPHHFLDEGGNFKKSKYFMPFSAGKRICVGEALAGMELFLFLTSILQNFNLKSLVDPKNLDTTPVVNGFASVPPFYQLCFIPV
# Method: Assessment of certain in vitro ADME (absorption, distribution, metabolism, and excretion) parameters for certain compounds of the invention was conducted by BioFocus (Saffron Walden, UK).
SMILES,"cytokine (IL-1β, IL-6 and IL-8) release compared to the DMSO control [1]",levels of pro-inflammatory cytokines in samples of colon tissue [2],increases in revertant colonies [3],activity in TNBS model of colonic inflammation (histopathology analysis) (TNBS-induced colitis),effect on the binding of B-Raf to its standard ligand (B-Raf),effect on the binding of B-Raf (V600E) to its standard ligand (B-Raf (V600E)),% β-catenin induction (d-U937 cells; test compound 5 μg/mL),also measured
"COCCOCCOCCOc1cc(Nc2nccc(Oc3ccc(NC(=O)Nc4cc(C(C)(C)C)cc(NS(=O)(=O)N5CCOCC5)c4OC)c4ccccc34)n2)cc(OC)c1 [83(b), N-(5-(tert-butyl)-2-methoxy-3-(3-(4-((2-((3-methoxy-5-(2-(2-(2-methoxyethoxy)ethoxy)-ethoxy)phenyl)amino)pyrimidin-4-yl)oxy)naphthalen-1-yl)ureido)phenyl)morpholine-4-sulfonamide]",–,–,–,–,–,–,–,% β-catenin induction (d-U937 cells; test compound 10 μg/mL): −6%
"C#Cc1cc(Nc2nccc(Oc3ccc(NC(=O)Nc4cc(C(C)(C)C)cc(NS(C)(=O)=O)c4OC)c4ccccc34)n2)cc(C(=O)NCCOCCOCCOC)c1 [Example 16, 3-((4-((4-(3-(5-(tert-Butyl)-2-methoxy-3-(methylsulfonamido)phenyl)ureido)naphthalen-1-yl)oxy)pyrimidin-2-yl)amino)-5-ethynyl-N-(2-(2-(2-methoxyethoxy)ethoxy)ethyl)benzamide]",significantly inhibited,significantly reduced levels of pro-inflammatory cytokines,no dose-related or statistically significant increases in revertant colonies,displayed substantial activity,did not have any significant effect,did not have any significant effect,–,selectivity compared to the Reference Compound (non-mutant kinases): substantially improved selectivities; activity in T cell driven model of colonic inflammation (ratios of colon weight to length) ([2]; adoptive transfer): displayed significant activity; metabolism at the naphthalene moiety [4]: no products were noted that could be connected to metabolism at the naphthalene moiety; number of metabolites resulting from oxidation on the polyethylene glycol chain of the amide moiety [4]: 8
"COc1cc(Nc2cc(Oc3ccc(NC(=O)Nc4cc(C(C)(C)C)cc(NS(C)(=O)=O)c4OC)c4ccccc34)ccn2)cc(C(=O)NCCN2CCOCC2)c1 [Example 27, 3-((4-((4-(3-(5-(tert-Butyl)-2-methoxy-3-(methylsulfonamido)phenyl)ureido)naphthalen-1-yl)oxy)pyridin-2-yl)amino)-5-methoxy-N-(2-morpholinoethyl)benzamide]",significantly inhibited,significantly reduced levels of pro-inflammatory cytokines,no dose-related or statistically significant increases in revertant colonies,displayed substantial activity,did not have any significant effect,did not have any significant effect,–,"% Inhibition ([2]; 3 mg/kg BID oral gavage, colon weight:length, induction window between naïve and vehicle animals): 99%; cytokine levels in anterior and posterior segments of the eyes [5]: significantly reduced cytokine levels"
"C#Cc1cc(Nc2cc(Oc3ccc(NC(=O)Nc4cc(C(C)(C)C)cc(NS(C)(=O)=O)c4OC)c4ccccc34)ccn2)cc(C(=O)NCCOCCOCCOC)c1 [Example 54, 3-((4-((4-(3-(5-(tert-Butyl)-2-methoxy-3-(methylsulfonamido)phenyl)ureido)naphthalen-1-yl)oxy)pyridin-2-yl)amino)-5-ethynyl-N-(2-(2-(2-methoxyethoxy)ethoxy)ethyl)benzamide]",–,–,–,–,–,–,5%,–
"C#Cc1cc(Nc2cc(Oc3ccc(NC(=O)Nc4cc(C(C)(C)C)cc(NS(C)(=O)=O)c4OC)c4ccccc34)ccn2)cc(C(=O)N[C@H](C)COCCOCCOC)c1 [Example 68, (R)-3-((4-((4-(3-(5-(tert-Butyl)-2-methoxy-3-(methylsulfonamido)phenyl)ureido)-naphthalen-1-yl)oxy)pyridin-2-yl)amino)-5-ethynyl-N-(1-(2-(2-methoxyethoxy)ethoxy)-propan-2-yl)benzamide]",–,–,–,–,–,–,2%,–
C#CC(C)(C)c1cc(NC(=O)Nc2ccc(Oc3ccnc(Nc4cc(C)c5[nH]ncc5c4)n3)c3ccccc23)n(-c2ccc(C)cc2)n1 [Ref Cpd A],–,–,–,–,–,–,–,"% Inh (inhibition at 5 μM reported instead) (CYP2C9; CYP2C9, 0 min preincubation): 31^[†] %; % Inh (inhibition at 5 μM reported instead) (CYP2C9; CYP2C9, 30 min preincubation): 66^[†] %"
